The text below walks through data of paper doi:10.1101/2025.07.02.662867v1 (bioRxiv, 2025).

For data set [1] the following is noted: typical dose of 0.5 to 1 mg; cited from earlier work.
Data set [2] can be described thus: 24-hour IV pharmacokinetic study in T2D rat model. The arrangement: species or system STZ/NA diabetic). The conditions noted are these: male, Sprague Dawley, in vivo.
Data set [3] deals with type 2-like diabetic male rats. Nature of the data set: Blood glucose and body weight over 6 weeks in diabetic rats. It is filed as in vivo, rat (male Sprague Dawley, STZ/NA diabetic). The conditions noted are these: hydrogel vs daily bolus.

In the case of `CC[C@H](C)[C@H](NC(=O)[C@H](Cc1ccccc1)NC(=O)[C@H](CCC(=O)O)NC(=O)[C@H](CCCCNC(=O)COCCOCCNC(=O)COCCOCCNC(=O)CC[C@H](NC(=O)CCCCCCCCCCCCCCCCC(=O)O)C(=O)O)NC(=O)[C@H](C)NC(=O)[C@H](C)NC(=O)[C@H](CCC(N)=O)NC(=O)CNC(=O)[C@H](CCC(=O)O)NC(=O)[C@H](CC(C)C)NC(=O)[C@H](Cc1ccc(O)cc1)NC(=O)[C@H](CO)NC(=O)[C@H](CO)NC(=O)[C@@H](NC(=O)[C@H](CC(=O)O)NC(=O)[C@H](CO)NC(=O)[C@@H](NC(=O)[C@H](Cc1ccccc1)NC(=O)[C@@H](NC(=O)CNC(=O)[C@H](CCC(=O)O)NC(=O)C(C)(C)NC(=O)[C@@H](N)Cc1cnc[nH]1)[C@@H](C)O)[C@@H](C)O)C(C)C)C(=O)N[C@@H](C)C(=O)N[C@@H](Cc1c[nH]c2ccccc12)C(=O)N[C@@H](CC(C)C)C(=O)N[C@H](C(=O)N[C@@H](CCCNC(=N)N)C(=O)NCC(=O)N[C@@H](CCCNC(=N)N)C(=O)NCC(=O)O)C(C)C` [Sema, semaglutide], in data set [1], the half-life in humans was 170 h. Compound `CC[C@H](C)[C@H](NC(=O)[C@H](CC(C)C)NC(=O)[C@H](Cc1c[nH]c2ccccc12)NC(=O)[C@H](CCC(N)=O)NC(=O)[C@@H](NC(=O)[C@H](Cc1ccccc1)NC(=O)[C@H](C)NC(=O)[C@H](CCCCNC(=O)COCCOCCNC(=O)COCCOCCNC(=O)CC[C@H](NC(=O)CCCCCCCCCCCCCCCCCCC(=O)O)C(=O)O)NC(=O)[C@H](CCC(N)=O)NC(=O)[C@H](C)NC(=O)[C@@H](NC(=O)[C@H](CCCCN)NC(=O)[C@H](CC(=O)O)NC(=O)[C@H](CC(C)C)NC(=O)C(C)(C)NC(=O)[C@@H](NC(=O)[C@H](CO)NC(=O)[C@H](Cc1ccc(O)cc1)NC(=O)[C@H](CC(=O)O)NC(=O)[C@H](CO)NC(=O)[C@@H](NC(=O)[C@H](Cc1ccccc1)NC(=O)[C@@H](NC(=O)CNC(=O)[C@H](CCC(=O)O)NC(=O)C(C)(C)NC(=O)[C@@H](N)Cc1ccc(O)cc1)[C@@H](C)O)[C@@H](C)O)[C@@H](C)CC)[C@@H](C)CC)C(C)C)C(=O)N[C@@H](C)C(=O)NCC(=O)NCC(=O)N1CCC[C@H]1C(=O)N[C@@H](CO)C(=O)N[C@@H](CO)C(=O)NCC(=O)N[C@@H](C)C(=O)N1CCC[C@H]1C(=O)N1CCC[C@H]1C(=O)N1CCC[C@H]1C(=O)N[C@@H](CO)C(N)=O` [TZP, tirzepatide] gave a half-life in data set [2] of 3.87 ± 0.63 h. Moreover, in data set [3], the body weight outcome was “noticeable weight loss in some animals”.

As a reminder, the half-life is how long it takes for the measured level to halve. Lower therefore signals rapid decline.
